Patent publication US20110269825A1, “Modified Thromboxane A2 Receptor Promoter Sequence” (priority 2008, published 2011)

Key:
[1] = test system: Egr1; assay: Immunoblot analysis of Egr1 expression in HEL cells; assay type: cell-based, human; conditions: 100 nM PMA plus 10 μM PD98059, 16 h
Method: The expression of WT1, Sp1, Egr1, NF-E2, GATA-1 and Ets-1 proteins in HEL cells was confirmed by western blot analysis. Briefly, whole cell protein was resolved by SDS-PAGE (10% acrylamide gels) and transferred to polyvinylidene difluoride (PVDF) membrane according to standard methodology. […] For PMA studies, HEL cells were pre-incubated for the indicated amount of time with 100 nM PMA, with 10 μM PD98059, with 100 nM PMA plus 10 μM PD98059 or, as a control, with vehicle [0.1% (v/v) DMSO]. Whole cell protein (60 μg per lane) was resolved by SDS-PAGE (10% acrylamide gels) and transferred to polyvinylidene difluoride (PVDF) membrane according to standard methodology.

[2] = test system: Prm1-directed luciferase expression; assay: Effect of PMA, PD98059 or Vitamin D3 on Prm1-directed luciferase expression in HEL cells; assay type: cell-based, human; conditions: 100 nM PMA plus 10 μM PD98059, 16 h
Method: HEL and EA.hy 926 cells were co-transfected with the various pGL3Basic-recombinant plasmids (2 mg), encoding firefly luciferase, along with pRL-TK (200 ng), encoding renilla luciferase, using DMRIE-C® transfection reagent. HEK293, WI-38, and 1° hAoSMCs were co-transfected with the pGL3Basic-recombinant plasmids (2 mg), along with pRL-TK (200 ng), using Effectene transfection reagent. In all cases, cells co-transfected with pRL-TK (200 ng) in the presence of either the pGL3Control vector (firefly luciferase gene under the control of the SV40 promoter; 2 mg) or the promoter-less pGL3Basic empty vector (2 mg), which served as positive and negative controls, respectively. […] Relative firefly to renilla luciferase activity (arbitrary units) was calculated as a ratio and was expressed in relative luciferase units (RLU). To investigate the effect of over-expression of exon 5 (+ or −) or KTS (+ or −) isoforms of WT1 on Prm1-directed gene expression, HEL cells were co-transfected with either pGL3b:Prm1 or pGL3b:Prm1D (1.5 μg) plus 200 ng of pRL-TK along with either pcDNA3:WT1 (+/+), pcDNA3:WT1 (+/−), pcDNA3:WT1 (−/+), pcDNA3:WT1 (−/−) (0.5 μg), or as a control, pcDNA3 (0.5 μg). […] The plasmid pCMV5-NAB1, containing the entire coding sequence for NAB1, was generously donated by Dr. Gerald Thiel, University of Saarland Medical Center, Homburg, Germany, and has been described previously (Thiel et al., 2000). To investigate the effect of over-expression of NAB1 on the PMA-mediated induction of Prm1-directed gene expression, HEL cells were transiently co-transfected with pGL3b:Prm1 (2 μg) plus pRL-TK (200 ng) along with either pCMV5 (control) or pCMV:NAB1 (1 μg).

[3] = test system: 1° hAoSMC (primary human aortic smooth muscle) cells; assay: Dual luciferase genetic reporter assay in 1° hAoSMC; assay type: cell-based; conditions: for Mean firefly relative to renilla luciferase activity: co-transfected with pRL-TK
Method: (§1) HEL and EA.hy 926 cells were co-transfected with the various pGL3Basic-recombinant plasmids (2 mg), encoding firefly luciferase, along with pRL-TK (200 ng), encoding renilla luciferase, using DMRIE-C® transfection reagent. HEK293, WI-38, and 1° hAoSMCs were co-transfected with the pGL3Basic-recombinant plasmids (2 mg), along with pRL-TK (200 ng), using Effectene transfection reagent. In all cases, cells co-transfected with pRL-TK (200 ng) in the presence of either the pGL3Control vector (firefly luciferase gene under the control of the SV40 promoter; 2 mg) or the promoter-less pGL3Basic empty vector (2 mg), which served as positive and negative controls, respectively. Firefly and renilla luciferase expression was assayed some 48 h post-transfection using the Dual-Luciferase Reporter Assay System™, as described (Coyle et al., 2005). Relative firefly to renilla luciferase activity (arbitrary units) was calculated as a ratio and was expressed in relative luciferase units (RLU). To investigate the effect of over-expression of exon 5 (+ or −) or KTS (+ or −) isoforms of WT1 on Prm1-directed gene expression, HEL cells were co-transfected with either pGL3b:Prm1 or pGL3b:Prm1D (1.5 μg) plus 200 ng of pRL-TK along with either pcDNA3:WT1 (+/+), pcDNA3:WT1 (+/−), pcDNA3:WT1 (−/+), pcDNA3:WT1 (−/−) (0.5 μg), or as a control, pcDNA3 (0.5 μg). Cells were harvested 48 h post-transfection and assayed for luciferase activity, as above, or subjected to western blot or RT-PCR analysis. The plasmids pcDNA3:WT1 (+/+), pcDNA3:WT1 (+/−), pcDNA3:WT1 (−/+) and pcDNA3:WT1 (−/−) were generously donated by Dr. Charles T. Roberts JR, Oregon National Primate Research Center, Oregon, USA and have been previously described (Tajinda et al., 1999). For PMA studies, approximately 32 h post-transfection, the medium was supplemented with PMA (100 nM), with PMA (100 nM) and PD98059 (10 μM) or, as a control, with vehicle [0.1% (v/v) DMSO]. After 16 h, cells were assayed for firefly and renilla luciferase using the Dual-Luciferase Reporter Assay System™ as previously described (Coyle et al., 2005). […]

[4] = test system: WI-38 (human lung fibroblast) cells; assay: Dual luciferase genetic reporter assay in WI-38 cells; assay type: cell-based
Method: as §1

[5] = test system: EA.hy 926 (human endothelial) cells; assay: Dual luciferase genetic reporter assay in EA.hy 926 cells; assay type: cell-based
Method: as §1

[6] = test system: HEK (Human embryonic kidney) 293 cells; assay: Dual luciferase genetic reporter assay in HEK 293 cells; assay type: cell-based
Method: as §1

[7] = test system: HEL 92.1.7 cells; assay: Dual luciferase genetic reporter assay of promoter-directed luciferase expression in HEL cells; assay type: cell-based, human
Method: HEL and EA.hy 926 cells were co-transfected with the various pGL3Basic-recombinant plasmids (2 mg), encoding firefly luciferase, along with pRL-TK (200 ng), encoding renilla luciferase, using DMRIE-C® transfection reagent. HEK293, WI-38, and 1° hAoSMCs were co-transfected with the pGL3Basic-recombinant plasmids (2 mg), along with pRL-TK (200 ng), using Effectene transfection reagent. In all cases, cells co-transfected with pRL-TK (200 ng) in the presence of either the pGL3Control vector (firefly luciferase gene under the control of the SV40 promoter; 2 mg) or the promoter-less pGL3Basic empty vector (2 mg), which served as positive and negative controls, respectively. Firefly and renilla luciferase expression was assayed some 48 h post-transfection using the Dual-Luciferase Reporter Assay System™, as described (Coyle et al., 2005). Relative firefly to renilla luciferase activity (arbitrary units) was calculated as a ratio and was expressed in relative luciferase units (RLU). To investigate the effect of over-expression of exon 5 (+ or −) or KTS (+ or −) isoforms of WT1 on Prm1-directed gene expression, HEL cells were co-transfected with either pGL3b:Prm1 or pGL3b:Prm1D (1.5 μg) plus 200 ng of pRL-TK along with either pcDNA3:WT1 (+/+), pcDNA3:WT1 (+/−), pcDNA3:WT1 (−/+), pcDNA3:WT1 (−/−) (0.5 μg), or as a control, pcDNA3 (0.5 μg). Cells were harvested 48 h post-transfection and assayed for luciferase activity, as above, or subjected to western blot or RT-PCR analysis. The plasmids pcDNA3:WT1 (+/+), pcDNA3:WT1 (+/−), pcDNA3:WT1 (−/+) and pcDNA3:WT1 (−/−) were generously donated by Dr. Charles T. Roberts JR, Oregon National Primate Research Center, Oregon, USA and have been previously described (Tajinda et al., 1999). For PMA studies, approximately 32 h post-transfection, the medium was supplemented with PMA (100 nM), with PMA (100 nM) and PD98059 (10 μM) or, as a control, with vehicle [0.1% (v/v) DMSO]. After 16 h, cells were assayed for firefly and renilla luciferase using the Dual-Luciferase Reporter Assay System™ as previously described (Coyle et al., 2005). The plasmid pCMV5-NAB1, containing the entire coding sequence for NAB1, was generously donated by Dr. Gerald Thiel, University of Saarland Medical Center, Homburg, Germany, and has been described previously (Thiel et al., 2000). To investigate the effect of over-expression of NAB1 on the PMA-mediated induction of Prm1-directed gene expression, HEL cells were transiently co-transfected with pGL3b:Prm1 (2 μg) plus pRL-TK (200 ng) along with either pCMV5 (control) or pCMV:NAB1 (1 μg). Cells were harvested 48 h post-transfection and assayed for luciferase activity, as above.

[8] = test system: human tissue factor (hTF); assay: Immunoblot analysis of promoter-driven human tissue factor expression in HEL cells; assay type: cell-based; conditions: 48 h post-transfection, compared with CMV promoter (pcDNA3.1(−):hTF) and pcDNA3.1(−)
Method: The expression of WT1, Sp1, Egr1, NF-E2, GATA-1 and Ets-1 proteins in HEL cells was confirmed by western blot analysis. Briefly, whole cell protein was resolved by SDS-PAGE (10% acrylamide gels) and transferred to polyvinylidene difluoride (PVDF) membrane according to standard methodology. Membranes were screened using anti-WT1, anti-NF-E2, anti-Sp1, anti-Egr1, anti-GATA-1 or anti-Ets-1 sera in 5% non fat dried milk in 1×TBS (0.01 M Tris/HCl, 0.1 M NaCl) for 2 h at room temperature followed by washing and screening using goat anti-rabbit horseradish peroxidase (sc-2204) followed by chemiluminescence detection, as described by the supplier (Roche Applied Science). For PMA studies, HEL cells were pre-incubated for the indicated amount of time with 100 nM PMA, with 10 μM PD98059, with 100 nM PMA plus 10 μM PD98059 or, as a control, with vehicle [0.1% (v/v) DMSO]. Whole cell protein (60 μg per lane) was resolved by SDS-PAGE (10% acrylamide gels) and transferred to polyvinylidene difluoride (PVDF) membrane according to standard methodology. […] Cells were harvested 48 hr post-transfection and aliquots ([…]) were analysed by SDS-PAGE/western blot analysis. As a positive control for hTF expression, […] of a commercial control Tissue-Factor Biomass was also analysed. […]

Compound | Effect on PMA-induction of Egr1 protein expression [1] | Effect on luciferase expression directed by the Prm1K sub-fragment [2] | PMA-induction of Prm1-directed luciferase expression in the presence of PD98059 ([2]; 4.3-fold with PMA alone) [fold] | Ratio of luciferase expression relative to that directed by pGL3Control [3] | Mean firefly relative to renilla luciferase activity [3] [RLU] | Mean firefly relative to renilla luciferase activity ([3]; listed as pGL3BPrm1GC-8146) [RLU] | Ratio of luciferase expression relative to that directed by pGL3Control ([4]; WI-38) | Statistical significance of luciferase expression vs Prm1 ([4]; WI-38, ↑ = increase) | Mean firefly relative to renilla luciferase activity ([4]; WI-38 cells, co-transfected with pRL-TK) [RLU] | Ratio of luciferase expression relative to that directed by pGL3Control ([5]; EA.hy 926) | Statistical significance of luciferase expression vs Prm1 ([5]; EA.hy 926, ↑ = increase) | Mean firefly relative to renilla luciferase activity ([5]; EA.hy 926 cells, co-transfected with pRL-TK) [RLU] | Ratio of luciferase expression relative to that directed by pGL3Control ([6]; HEK) | Statistical significance of luciferase expression vs Prm1 ([6]; HEK 293, ↑ = increase) | Mean firefly relative to renilla luciferase activity ([6]; HEK 293 cells, co-transfected with pRL-TK) [RLU] | Ratio of luciferase expression relative to that directed by pGL3Control ([7]; HEL) | Mean firefly relative to renilla luciferase activity ([7]; HEL cells, co-transfected with pRL-TK, 48 h post-transfection) [RLU] | Increase in luciferase activity relative to Prm1 (−8500) ([7]; HEL, 5′ deletion or site-directed mutation of Prm1) [fold] | Luciferase expression compared with another construct, in words ([7]; HEL, comparator as named in the words or parent fragment) | Level of human tissue factor expression driven by the promoter [8]
COc1cccc(-c2cc(=O)c3ccccc3o2)c1N [PD98059, 2-(2-amino-3-methoxyphenyl)-4H-1-benzopyran-4-one] | completely abolished the PMA-induction of Egr1 protein expression | neither PMA alone (p=0.4721) nor PMA plus PD98059 (p=0.2693) had any significant effect | 2.3 | – | – | – | – | – | – | – | – | – | – | – | – | – | – | – | – | –
Prm1^GC*^(−8146): Prm1 with GC element at −8146 mutated (SEQ ID NO:13) (DNA CGGGGGTCGTGGGGTGGATGGCGGGCCAA; expressed or natural sequence; listed as Homo sapiens) | – | – | – | 1.18 | 82.67 | 82.668 | 0.51 | ns | 59.01 | 0.06 | ns | 3.11 | 0.69 | ns | 6.9 | 2.65 | 21.5 | 2.5 | significantly stronger promoters | significantly greater
